The values that follow come from patent publication US20260335388A1, “COMBINATION THERAPIES WITH ONCOLYTIC ADENOVIRUS AND TOPOISOMERASE I INHIBITORS OR PRODRUGS THEREOF” (priority 2022, published 2026).

Molecules are shown by their SMILES.

In the assay the test system is RBT-7 xenografts. Briefly: Ocular survival, RBT-7 intraocular xenografts. The conditions noted are these: control 35 days; combination P<0.0001 (FIG. 20C). The format is in vivo, mouse. Here is the method:
Antitumor activity in retinoblastoma. For orthotopic intraocular engraftments 2×10^5 retinoblastoma cells were inoculated per eye, in 2 μL matrigel (Pascual-Pasto et al., 2016). To obtain s.c. xenografts 10^6 cells were injected in 25 μl matrigel. For ocular tumors, treatments were started at day 8 after inoculation (when tumors were appreciable by fundus examination). For s.c. tumors, treatments were started when volumes achieved 100-300 mm^3 (day 1). After treatments, the survivors were followed up until endpoint and the median survival of each group was calculated, as described previously (Mandigo et al., 2022; Rodríguez-García et al., 2015).
In a second experiment, the sequence of administration of one injection of VCN-01 and one 5-day cycle of topotecan was addressed. Mice with intraocular tumors (Y79 or RBT-7) received either topotecan 0.6 mg/kg, i.p. on days 8-12, one intravitreal injection of VCN-01 (3×10^8 vp) on day 8, or the combination of topotecan and VCN-01. Y79-bearing mice also received a switched treatment sequence, with VCN-01 on day 12, after the last dose of topotecan.

Take `CC[C@@]1(O)C(=O)OCc2c1cc1n(c2=O)Cc2cc3c(CN(C)C)c(O)ccc3nc2-1` [Topotecan, topotecan]: the median survival came out at 39 days.
